Test: Liver microsomal stability, mouse
Assay type: in vitro ADME
Settings: male, CD-1, pH 7.4, mouse liver microsomes, five time points over 1 h, read-out: MLM CLint
Procedure: Compounds 1 ([…] DMSO stock solutions) were diluted to 2.5 mM with DMSO and again to 0.5 mM with MeCN to give a final solution containing a 0.5 mM compound in 1:4 DMSO/MeCN. Liver microsomes from male CD-1 mice were sourced from Xenotech (Kansas City, KS, USA). A reaction plate was prepared by adding 691.25 μL and prewarmed (37 °C) microsomal solution (0.63 mg/mL protein and 1.3 mM EDTA in potassium phosphate buffer made by mixing ~250 mL of 100 mM K2HPO4 with ~65mL of KH2PO4 until the buffer reaches a pH of 7.4) to an empty well of a 96-well plate and maintained at 37 °C. […] The stability of the compound was calculated as the percentage of the unchanged parent remaining at T = 30 min relative to the peak area at T = 0 min.
To determine CLint, aliquots of 50 μL were taken from the reaction solution at 0, 15, 30, 45, and 60 min. […] Peak areas were determined from extracted ion chromatograms and the slope value, k, was determined by linear regression of the natural logarithm of the remaining percentage of the parent drug vs. incubation time curve. The intrinsic clearance (CLint in μL/min/mg) was calculated using the relationship CLint = kV/N where V is the incubation volume and N is the amount of protein per well.

`CCC(=O)Nc1cc(Nc2cc(NC3CC3)n3ncc(C#N)c3n2)c(F)cc1N1CCC[C@H](NC)C1` [Compound 2, (S)-N-(5-((3-cyano-7-(cyclopropylamino)pyrazolo[1,5-a]pyrimidin-5-yl)amino)-4-fluoro-2-(3-(methylamino)piperidin-1-yl)phenyl)propionamide] gave a CLint scaled at 5 μM of 48.5 mL/min/kg.
